# The supplement of paper PMC10307832
# Legend:
# Assay in all cases: relative viability (nuclei count vs DMSO), 5 days (fraction); higher = more cells survive
# 201T = tested on: 201T
# How it was run: (§1)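 One day after seeding in 1536-well plates, lung cancer cell lines were dosed by pin tool. Dosing was either single-drug or a fixed anchor-drug dose plus five library-drug doses (not always all listed) in √10 steps. After 5 days, nuclei were stained in one fix-and-stain step and counted on 4× images, and relative viability is the nuclei count of treated wells over that of vehicle wells, given as the median of duplicate plates.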
# COR-L23 = tested on: COR-L23
# How it was run: as §1
# EPLC-272H = tested on: EPLC-272H
# How it was run: as §1
# H3255 = tested on: H3255
# How it was run: as §1
# HCC-44 = tested on: HCC-44
# How it was run: as §1
# LOU-NH91 = tested on: LOU-NH91
# How it was run: as §1
# NCI-H1650 = tested on: NCI-H1650
# How it was run: as §1
# NCI-H1734 = tested on: NCI-H1734
# How it was run: as §1
# NCI-H1793 = tested on: NCI-H1793
# How it was run: as §1
# NCI-H1993 = tested on: NCI-H1993
# How it was run: as §1
# NCI-H2023 = tested on: NCI-H2023
# How it was run: as §1
# NCI-H2085 = tested on: NCI-H2085
# How it was run: as §1
# NCI-H2170 = tested on: NCI-H2170
# How it was run: as §1
# NCI-H2347 = tested on: NCI-H2347
# How it was run: as §1
# NCI-H2405 = tested on: NCI-H2405
# How it was run: as §1
# NCI-H3122 = tested on: NCI-H3122
# How it was run: as §1
# NCI-H441 = tested on: NCI-H441
# How it was run: as §1
# NCI-H520 = tested on: NCI-H520
# How it was run: as §1
# NCI-H647 = tested on: NCI-H647
# How it was run: as §1
# PC-14 = tested on: PC-14
# How it was run: as §1
# RERF-LC-KJ = tested on: RERF-LC-KJ
# How it was run: as §1
# SW 900 = tested on: SW 900
# How it was run: as §1
smiles,measurement,setting,value
Oc1nc(-c2ccc(C(F)(F)F)cc2)nc2c1CSCC2 [XAV939] + Cc1cc(Nc2cc(N3CCN(C)CC3)nc(Sc3ccc(NC(=O)C4CC4)cc3)n2)n[nH]1 [Tozasertib] (partner 0.1 µM),relative viability,201T; first compound 0.08 µM,0.99
same,relative viability,201T; first compound 0.253 µM,0.763
same,relative viability,201T; first compound 0.8 µM,0.812
same,relative viability,201T; first compound 2.53 µM,0.755
same,relative viability,COR-L23; first compound 0.08 µM,0.194
same,relative viability,COR-L23; first compound 0.253 µM,0.195
same,relative viability,COR-L23; first compound 0.8 µM,0.225
same,relative viability,COR-L23; first compound 2.53 µM,0.154
same,relative viability,EPLC-272H; first compound 0.08 µM,0.409
same,relative viability,EPLC-272H; first compound 0.253 µM,0.287
same,relative viability,EPLC-272H; first compound 0.8 µM,0.22
same,relative viability,EPLC-272H; first compound 2.53 µM,0.255
same,relative viability,H3255; first compound 0.08 µM,0.699
same,relative viability,H3255; first compound 0.253 µM,0.597
same,relative viability,H3255; first compound 0.8 µM,0.597
same,relative viability,H3255; first compound 2.53 µM,0.544
same,relative viability,HCC-44; first compound 0.08 µM,1.46
same,relative viability,HCC-44; first compound 0.253 µM,0.799
same,relative viability,HCC-44; first compound 0.8 µM,0.996
same,relative viability,HCC-44; first compound 2.53 µM,0.789
same,relative viability,LOU-NH91; first compound 0.08 µM,0.655
same,relative viability,LOU-NH91; first compound 0.253 µM,0.663
same,relative viability,LOU-NH91; first compound 0.8 µM,0.637
same,relative viability,LOU-NH91; first compound 2.53 µM,0.695
same,relative viability,NCI-H1650; first compound 0.08 µM,0.471
same,relative viability,NCI-H1650; first compound 0.253 µM,0.36
same,relative viability,NCI-H1650; first compound 0.8 µM,0.406
same,relative viability,NCI-H1650; first compound 2.53 µM,0.332
same,relative viability,NCI-H1734; first compound 0.08 µM,0.243
same,relative viability,NCI-H1734; first compound 0.253 µM,0.206
same,relative viability,NCI-H1734; first compound 0.8 µM,0.261
same,relative viability,NCI-H1734; first compound 2.53 µM,0.293
same,relative viability,NCI-H1793; first compound 0.08 µM,0.403
same,relative viability,NCI-H1793; first compound 0.253 µM,0.297
same,relative viability,NCI-H1793; first compound 0.8 µM,0.306
same,relative viability,NCI-H1793; first compound 2.53 µM,0.263
same,relative viability,NCI-H1993; first compound 0.08 µM,0.559
same,relative viability,NCI-H1993; first compound 0.253 µM,0.605
same,relative viability,NCI-H1993; first compound 0.8 µM,0.551
same,relative viability,NCI-H1993; first compound 2.53 µM,0.59
same,relative viability,NCI-H2023; first compound 0.08 µM,0.391
same,relative viability,NCI-H2023; first compound 0.253 µM,0.334
same,relative viability,NCI-H2023; first compound 0.8 µM,0.278
same,relative viability,NCI-H2023; first compound 2.53 µM,0.226
same,relative viability,NCI-H2085; first compound 0.08 µM,0.774
same,relative viability,NCI-H2085; first compound 0.253 µM,0.856
same,relative viability,NCI-H2085; first compound 0.8 µM,0.651
same,relative viability,NCI-H2085; first compound 2.53 µM,0.688
same,relative viability,NCI-H2170; first compound 0.08 µM,0.763
same,relative viability,NCI-H2170; first compound 0.253 µM,0.606
same,relative viability,NCI-H2170; first compound 0.8 µM,0.66
same,relative viability,NCI-H2170; first compound 2.53 µM,0.463
same,relative viability,NCI-H2347; first compound 0.08 µM,0.613
same,relative viability,NCI-H2347; first compound 2.53 µM,0.388
same,relative viability,NCI-H2405; first compound 0.08 µM,0.805
same,relative viability,NCI-H2405; first compound 0.253 µM,0.72
same,relative viability,NCI-H2405; first compound 0.8 µM,0.712
same,relative viability,NCI-H2405; first compound 2.53 µM,0.66
same,relative viability,NCI-H3122; first compound 0.08 µM,0.569
same,relative viability,NCI-H3122; first compound 0.253 µM,0.407
same,relative viability,NCI-H3122; first compound 0.8 µM,0.389
same,relative viability,NCI-H3122; first compound 2.53 µM,0.337
same,relative viability,NCI-H441; first compound 0.08 µM,0.818
same,relative viability,NCI-H441; first compound 0.253 µM,0.573
same,relative viability,NCI-H441; first compound 0.8 µM,0.71
same,relative viability,NCI-H441; first compound 2.53 µM,0.601
same,relative viability,NCI-H520; first compound 0.08 µM,0.42
same,relative viability,NCI-H520; first compound 0.253 µM,0.439
same,relative viability,NCI-H520; first compound 0.8 µM,0.461
same,relative viability,NCI-H520; first compound 2.53 µM,0.427
same,relative viability,NCI-H647; first compound 0.08 µM,0.288
same,relative viability,NCI-H647; first compound 0.253 µM,0.217
same,relative viability,NCI-H647; first compound 0.8 µM,0.262
same,relative viability,NCI-H647; first compound 2.53 µM,0.146
same,relative viability,PC-14; first compound 0.08 µM,0.673
same,relative viability,PC-14; first compound 0.253 µM,0.551
same,relative viability,PC-14; first compound 0.8 µM,0.685
same,relative viability,PC-14; first compound 2.53 µM,0.544
same,relative viability,RERF-LC-KJ; first compound 0.08 µM,0.546
same,relative viability,RERF-LC-KJ; first compound 0.253 µM,0.465
same,relative viability,RERF-LC-KJ; first compound 0.8 µM,0.462
same,relative viability,RERF-LC-KJ; first compound 2.53 µM,0.409
same,relative viability,SW 900; first compound 0.08 µM,0.663
same,relative viability,SW 900; first compound 0.253 µM,0.549
same,relative viability,SW 900; first compound 0.8 µM,0.535
same,relative viability,SW 900; first compound 2.53 µM,0.323
